Common to all, as to type: cell-based
Assay [1] has as its system P388 murine leukemia cell line. The experiment in a line: Cytotoxicity against P388 murine leukemia cell line. As to conditions: for IC50: Mus musculus, P388 murine leukemia. The procedure:
The Compounds A1-A5 were assayed against three cell lines: murine leukemia, P388; human breast cancer, MCF7 (ATCC HTB-22); and human colon cancer, HCT116 (ATCC CCL-247).

Assay [2] concerns HCT116 (ATCC CCL-247) human colon cancer cell line. Put plainly: MTT cytotoxic assay against HCT116 (96 h). The procedure:
(§1) Human breast cancer, MCF7 (ATCC HTB-22) and human colon cancer, HCT116 (ATCC CCL-247) cell lines were all maintained in RPMI 1640 (Sigma), supplemented with 10% Foetal Bovine Serum (FBS, PAA Laboratories). Cells of 80-85% confluence were harvested and plated onto 96-flat bottom well plates for experimental use. In all experiments, cells were incubated in a CO2 incubator at 37° C. with 5% CO2 overnight prior to treatment.
(§2) Compounds were tested against MCF7 and HCT116 and incubated for 96 h before cytotoxic assay using the MTT (3-(4,5-dimethylthiazole-2-yl)-2,5-diphenyltetrazolium bromide) assay according to Mosmann (J. Immunol Meth. 65 (1983) 55-63). Plates were read using an Elisa plate reader at 520 nm. Data generated was used to plot a dose response curve. Cytotoxic activity was expressed as the mean concentration of extract required to kill 50% of the cell population (IC50).
For orientation: Tetrazolium assays rely on reduction of a dye to a coloured formazan, in cell work by metabolically active cells.

Assay [3] has as its system MCF7 (ATCC HTB-22) human breast cancer cell line. Put plainly: MTT cytotoxic assay against MCF7 (96 h). As to conditions: for IC50: Homo sapiens, MCF7, 96 h. On the procedure:
as §1, §2

The mark [4] stands for this setting: Homo sapiens, HCT-116, 96 h, read-out: IC50 (nM) HCT116.
The mark [5] stands for this setting: Homo sapiens, HCT-116, 96 h, read-out: IC50 (ng/mL) HCT116.

Molecules are shown by their SMILES. Where two headings read alike, the source gives them in different places.

Turning to `CCC(C)C1NC(=O)C(C(O)C(C)C)NC(=O)C2CCCCN2C(=O)C(C)N(C)C(=O)C(CC(C)C)NC(=O)C(C(O)C(C)C)N(C)C(=O)C(C)N(C)C1=O` (stereo not shown) [Compound A2], the IC50 amounted to 56 nM in assay [1] (read-out: IC50 (nM) P388); 45 ng/mL in assay [1] (read-out: IC50 (ng/mL) P388); 11.6 nM in assay [2] (setting [4]); 9.3 ng/mL in assay [2] (setting [5]); 8.3 nM in assay [3] (read-out: IC50 (nM) MCF7); 6.6 ng/mL in assay [3] (read-out: IC50 (ng/mL) MCF7).

Turning to `C=CC(C)CC1NC(=O)C(C(O)C(C)CC)N(C)C(=O)C(C)N(C)C(=O)C(C(C)CC)NC(=O)C(C(O)C(C)C)NC(=O)C2CCCCN2C(=O)C(C)N(C)C1=O` (stereo not shown) [Compound A5], the IC50 is 0.13 nM in assay [1] (read-out: IC50 (nM) P388); 0.1 ng/mL in assay [1] (read-out: IC50 (ng/mL) P388); 0.3 nM in assay [2] (setting [4]); 0.2 ng/mL in assay [2] (setting [5]); 1 nM in assay [3] (read-out: IC50 (nM) MCF7); 0.8 ng/mL in assay [3] (read-out: IC50 (ng/mL) MCF7). Also, in assay [1] (P388 data), the “factor between the least active, Compound A2, and the most active, Compound A5” value is roughly 450.

On to `C=CC(C)CC1NC(=O)C(C(O)C(C)C)N(C)C(=O)C(C)N(C)C(=O)C(C(C)CC)NC(=O)C(C(O)C(C)C)NC(=O)C2CCCCN2C(=O)C(C)N(C)C1=O` (stereo not shown) [Compound A3], for which the IC50 in assay [1] (read-out: IC50 (nM) P388) was determined as 1.3 nM; in assay [1] (read-out: IC50 (ng/mL) P388) it was 1 ng/mL; in assay [2] (setting [4]), 0.3 nM; in assay [2] (setting [5]), 0.2 ng/mL; in assay [3] (read-out: IC50 (nM) MCF7) it was 0.9 nM; in assay [3] (read-out: IC50 (ng/mL) MCF7), 0.73 ng/mL.

For the molecule `N.N.[Cl][Pt][Cl]` [cisplatin, reference compound], in assay [2] (HCT116 human colon cancer, MTT, 96 h), the “IC50 (ng/mL) HCT116” value is reported as 1650 ng/mL. In addition, the “IC50 (ng/mL) MCF7” value in assay [3] (MCF7 human breast cancer, MTT, 96 h) is on record as 8705 ng/mL.

Take `O=c1[nH]cc(F)c(=O)[nH]1` [5-fluorouracil, reference compound]: the IC50 in assay [2] (HCT-116, HCT116 human colon cancer, MTT, 96 h, read-out: IC50 (ng/mL) HCT116) was found to be 910 ng/mL.

`CCC(C)CC1NC(=O)C(C(O)C(C)C)N(C)C(=O)C(C)N(C)C(=O)C(C(C)CC)NC(=O)C(C(O)C(C)C)NC(=O)C2CCCCN2C(=O)C(C)N(C)C1=O` (stereo not shown) [Compound A4]: the IC50 in assay [1] (read-out: IC50 (nM) P388) came out at 24 nM; in assay [1] (read-out: IC50 (ng/mL) P388), 19 ng/mL; in assay [2] (setting [4]), 3.9 nM; in assay [2] (setting [5]) it was 3.1 ng/mL; in assay [3] (read-out: IC50 (nM) MCF7), 7.1 nM; in assay [3] (read-out: IC50 (ng/mL) MCF7) it was 5.7 ng/mL.

Take `C=CC(C)CC1NC(=O)C(C(O)C(C)C)N(C)C(=O)C(C)N(C)C(=O)C(C(C)C)NC(=O)C(C(O)C(C)C)NC(=O)C2CCCCN2C(=O)C(C)N(C)C1=O` (stereo not shown) [Compound A1]: the IC50 in assay [1] (read-out: IC50 (nM) P388) is 3.8 nM; in assay [1] (read-out: IC50 (ng/mL) P388), 3 ng/mL; in assay [2] (setting [4]) it was 5.9 nM; in assay [2] (setting [5]) it was 4.7 ng/mL; in assay [3] (read-out: IC50 (nM) MCF7), 8.1 nM; in assay [3] (read-out: IC50 (ng/mL) MCF7) it was 6.5 ng/mL.

Source of the values: US20110201642A1, “Bioactive Compounds” (priority 2008, published 2011).
